Laboratory results as given in patent US9765056B2, “Indole and pyrrole compounds, a process for their preparation and pharmaceutical compositions containing them” (LES LABORATOIRES SERVIER, priority 2013, dated 2017).
Counter-ions that a name gives are not always drawn.

Tests used:
[1] = system: RS4;11 leukaemia tumour line; assay: In vitro cytotoxicity, Microculture Tetrazolium Assay (MTT); format: cell-based; details: Homo sapiens; RS4;11 cells, 48 hours exposure
Procedure: The cytotoxicity studies were carried out on the RS4;11 leukaemia tumour line.
The cells are distributed onto microplates and exposed to the test compounds for 48 hours. The cell viability is then quantified by a colorimetric assay, the Microculture Tetrazolium Assay (Cancer Res., 1987, 47, 939-942).

Bcl-2 protein = Bcl-2 protein (histag-Bcl-2, UniProtKB P10415) (Homo sapiens (Human), UniProt P10415); assay: Inhibition of Bcl-2 by the fluorescence polarisation technique; format: binding; details: for IC50: fluorescence polarisation test, method A, or method B where underlined (underlining not visible), read-out: IC50 (nM) Bcl-2 FP
Bcl-2 protein, sequence (P10415 whole entry): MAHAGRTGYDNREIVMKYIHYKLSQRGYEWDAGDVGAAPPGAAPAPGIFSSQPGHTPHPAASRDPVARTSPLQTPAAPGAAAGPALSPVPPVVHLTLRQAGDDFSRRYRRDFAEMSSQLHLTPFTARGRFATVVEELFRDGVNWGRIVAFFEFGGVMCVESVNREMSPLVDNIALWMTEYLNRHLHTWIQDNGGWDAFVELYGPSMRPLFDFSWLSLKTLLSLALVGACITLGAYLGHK
Excerpt: Inhibition of Bcl-2 by the fluorescence polarisation technique

Row | IC50 (Bcl-2 protein) [nM] | inhibition at 22.2 µM (Bcl-2 protein; @22.2 μM test compound, partial inhibitor, read-out: percentage fluorescence polarisation inhibition (Bcl-2 FP)) [%] | Structure (SMILES) | IC50 [1] [nM]
1 | 3.8 | – | CN1CCN(C[C@@H]2Cc3ccccc3CN2C(=O)c2cc3c(cc2-n2cc(C(=O)N(c4ccc(O)cc4)c4ccc5[nH]ccc5c4)c4ccccc42)OCO3)CC1 [Example 37, N-(4-Hydroxyphenyl)-N-(1H-indol-5-yl)-1-(6-{[(3S)-3-[(4-methylpiperazin-1-yl)methyl]-3,4-dihydroisoquinolin-2(1H)-yl]carbonyl}-1,3-benzodioxol-5-yl)-1H-indole-3-carboxamide] | 47.1
2 | 23.7 | – | Cc1cc(C(=O)N(c2ccc(O)cc2)c2ccc3c(c2)CN(C)C3)cn1-c1cc2c(cc1C(=O)N1Cc3ccccc3C[C@H]1C)OCO2 [Example 114, N-(4-Hydroxyphenyl)-5-methyl-N-(2-methyl-2,3-dihydro-1H-isoindol-5-yl)-1-(6-{[(3R)-3-methyl-3,4-dihydroisoquinolin-2(1H)-yl]carbonyl}-1,3-benzodioxol-5-yl)-1H-pyrrole-3-carboxamide hydrochloride] | 726
3 | 12.2 | – | COc1cc(-n2cc(C(=O)N(c3ccccc3)c3ccc(O)cc3)c3ccccc32)c(C(=O)N2Cc3ccccc3C[C@H]2CN)cc1O [Example 145, 1-{2-[(3S)-3-(Aminomethyl)-1,2,3,4-tetrahydroisoquinoline-2-carbonyl]-4-hydroxy-5-methoxyphenyl}-N-(4-hydroxyphenyl)-N-phenyl-1H-indole-3-carboxamide] | 1180
4 | 37.4 | – | COc1cc(C(=O)N2Cc3ccccc3C[C@H]2CN2CCN(C)CC2)c(-n2cc(C(=O)N(c3ccccc3)c3ccc(O)cc3)c3ccccc32)cc1Cl [Example 167, 1-{5-Chloro-4-methoxy-2-[(3S)-3-[(4-methylpiperazin-1-yl)methyl]-1,2,3,4-tetrahydroisoquinoline-2-carbonyl]phenyl}-N-(4-hydroxyphenyl)-N-phenyl-1H-indole-3-carboxamide] | 984
5 | 29.6 | – | Cc1cc(C(=O)N(c2ccccc2)c2ccc(O)cc2)cn1-c1cc(Br)c(Br)cc1C(=O)N1Cc2ccccc2C[C@H]1CN1CCN(C)CC1 [Example 16, 1-(4,5-Dibromo-2-{[(3S)-3-[(4-methylpiperazin-1-yl)methyl]-3,4-dihydroisoquinolin-2(1H)-yl]carbonyl}phenyl)-N-(4-hydroxyphenyl)-5-methyl-N-phenyl-1H-pyrrole-3-carboxamide] | 656
6 | 4.3 | – | COc1ccc(C(=O)N2Cc3ccccc3C[C@H]2CN2CCN(C)CC2)c(-n2cc(C(=O)N(c3ccc(O)cc3)c3ccc4c(ccn4C)c3)c3ccccc32)c1 [Example 205, N-(4-Hydroxyphenyl)-1-{5-methoxy-2-[(3S)-3-[(4-methylpiperazin-1-yl)methyl]-1,2,3,4-tetrahydroisoquinoline-2-carbonyl]phenyl}-N-(1-methyl-1H-indol-5-yl)-1H-indole-3-carboxamide] | 123
7 | 19.2 | – | O=C(c1cn(-c2cc3c(cc2C(=O)N2Cc4ccccc4C[C@H]2CN2CCOCC2)OCO3)c2c1CCCC2)N(c1ccccc1)c1ccc(O)cc1 [Example 113, N-(4-Hydroxyphenyl)-1-(6-{[(3S)-3-(morpholin-4-ylmethyl)-3,4-dihydroisoquinolin-2(1H)-yl]carbonyl}-1,3-benzodioxol-5-yl)-N-phenyl-4,5,6,7-tetrahydro-1H-indole-3-carboxamide hydrochloride] | 203
8 | 13.6 | – | COc1cc(-n2cc(C(=O)N(c3ccccc3)c3ccc(F)cc3)c3ccccc32)c(C(=O)N2Cc3ccccc3C[C@H]2CN2CCN(C)CC2)cc1O [Example 190, N-(4-Fluorophenyl)-1-{4-hydroxy-5-methoxy-2-[(3S)-3-[(4-methylpiperazin-1-yl)methyl]-1,2,3,4-tetrahydroisoquinoline-2-carbonyl]phenyl}-N-phenyl-1H-indole-3-carboxamide dihydrochloride] | 645
9 | 120 | – | Cc1cc(C(=O)N(c2ccccc2)c2ccc(O)cc2)cn1-c1cc(C(F)(F)F)ccc1C(=O)N1Cc2ccccc2C[C@H]1CN(C)C [Example 12, 1-[2-{[(3S)-3-[(Dimethylamino)methyl]-3,4-dihydroisoquinolin-2(1H)-yl]carbonyl}-5-(trifluoromethyl)phenyl]-N-(4-hydroxyphenyl)-5-methyl-N-phenyl-1H-pyrrole-3-carboxamide] | 1810
10 | 6.7 | – | CCCCN(C(=O)c1cn(-c2cc(OC)c(O)cc2C(=O)N2Cc3ccccc3C[C@H]2CN2CCN(C)CC2)c2ccccc12)c1ccccc1 [Example 194, N-Butyl-1-{4-hydroxy-5-methoxy-2-[(3S)-3-[(4-methylpiperazin-1-yl)-methyl]-1,2,3,4-tetrahydroisoquinoline-2-carbonyl]phenyl}-N-phenyl-1H-indole-3-carboxamide dihydrochloride] | 534

Second part, the molecule before the results:

Row | Structure (SMILES) | IC50 (Bcl-2 protein) [nM] | inhibition at 22.2 µM (Bcl-2 protein; @22.2 μM test compound, partial inhibitor, read-out: percentage fluorescence polarisation inhibition (Bcl-2 FP)) [%] | IC50 [1] [nM]
11 | Cc1cc(C(=O)N(c2ccc(O)cc2)c2ccc3[nH]ccc3c2)cn1-c1cc(Br)ccc1C(=O)N1Cc2ccccc2C[C@H]1CN1CCCC1 [Example 104, 1-(5-Bromo-2-{[(3S)-3-(pyrrolidin-1-ylmethyl)-3,4-dihydroisoquinolin-2(1H)-yl]carbonyl}phenyl)-N-(4-hydroxyphenyl)-N-(1H-indol-5-yl)-5-methyl-1H-pyrrole-3-carboxamide] | 18.8 | – | 383
12 | NC[C@@H]1Cc2ccccc2CN1C(=O)c1cc(NC(=O)COc2ccccc2)ccc1-n1nc(C(=O)N(c2ccccc2)c2ccccc2)c2ccccc21 [Example 144, 1-{2-[(3S)-3-(Aminomethyl)-1,2,3,4-tetrahydroisoquinoline-2-carbonyl]-4-(2-phenoxyacetamido)phenyl}-N,N-diphenyl-1H-indazole-3-carboxamide] | 35 | – | 1380
13 | CN1CCN(C[C@@H]2Cc3ccccc3CN2C(=O)c2cc3c(cc2-n2cc(C(=O)N(c4ccccc4)c4ccccc4)c4ccccc42)OCO3)CC1 [Example 177, 1-{6-[(3S)-3-[(4-Methylpiperazin-1-yl)methyl]-1,2,3,4-tetrahydroisoquinoline-2-carbonyl]-2H-1,3-benzodioxol-5-yl}-N,N-diphenyl-1H-indole-3-carboxamide dihydrochloride] | 18.8 | – | 568
14 | COc1cc(-n2nc(C(=O)N(c3ccccc3)c3ccccc3)c3ccccc32)c(C(=O)N2Cc3ccccc3C[C@H]2CN)cc1OCc1ccccc1 [Example 134, 1-{2-[(3S)-3-(Aminomethyl)-1,2,3,4-tetrahydroisoquinoline-2-carbonyl]-4-(benzyloxy)-5-methoxyphenyl}-N,N-diphenyl-1H-indazole-3-carboxamide] | – | 72.1 | 2100
15 | CC(C)CC1Oc2cc(C(=O)N3Cc4ccccc4C[C@H]3CN)c(-n3cc(C(=O)N(c4ccccc4)c4ccc(O)cc4)c4ccccc43)cc2O1 (stereo partly drawn) [Example 158, 1-{6-[(3S)-3-(Aminomethyl)-1,2,3,4-tetrahydroisoquinoline-2-carbonyl]-2-(2-methylpropyl)-2H-1,3-benzodioxol-5-yl}-N-(4-hydroxyphenyl)-N-phenyl-1H-indole-3-carboxamide] | 54.1 | – | 834
16 | O=C(c1cn(-c2cc3c(cc2C(=O)N2Cc4ccccc4C[C@H]2CN2CCCCC2)OCO3)c2ccccc12)N(c1ccccc1)c1ccc(O)cc1 [Example 174, N-(4-Hydroxyphenyl)-N-phenyl-1-{6-[(3S)-3-(piperidin-1-ylmethyl)-1,2,3,4-tetrahydroisoquinoline-2-carbonyl]-2H-1,3-benzodioxol-5-yl}-1H-indole-3-carboxamide] | 41.2 | – | 402
17 | NC[C@@H]1Cc2ccccc2CN1C(=O)c1ccccc1-n1nc(C(=O)N(c2ccccc2)c2ccc(O)cc2)c2ccccc21 [Example 148, 1-{2-[(3S)-3-(Aminomethyl)-1,2,3,4-tetrahydroisoquinoline-2-carbonyl]-phenyl}-N-(4-hydroxyphenyl)-N-phenyl-1H-indazole-3-carboxamide] | 28.3 | – | 1170
18 | CN1CCN(C[C@@H]2Cc3ccccc3CN2C(=O)c2cc3c(cc2-n2cc(C(=O)N(c4ccc(O)cc4)c4ccc(Cl)cc4)c4ccccc42)OCO3)CC1 [Example 31, N-(4-Chlorophenyl)-N-(4-hydroxyphenyl)-1-(6-{[(3S)-3-[(4-methylpiperazin-1-yl)methyl]-3,4-dihydroisoquinolin-2(1H)-yl]carbonyl}-1,3-benzodioxol-5-yl)-1H-indole-3-carboxamide] | 5.5 | – | 71.4
19 | Cc1cc(C(=O)N(c2ccc(O)cc2)c2cnc3c(ccn3C)c2)cn1-c1cc2c(cc1C(=O)N1Cc3ccccc3C[C@H]1CN1CCOCC1)OCO2 [Example 206, N-(4-Hydroxyphenyl)-5-methyl-N-(1-methyl-1H-pyrrolo[2,3-b]pyridin-5-yl)-1-(6-{[(3S)-3-(morpholin-4-ylmethyl)-3,4-dihydroisoquinolin-2(1H)-yl]-carbonyl}-1,3-benzodioxol-5-yl)-1H-pyrrole-3-carboxamide hydrochloride] | 16.7 | – | 72.4
20 | COc1cc(-n2cc(C(=O)N(c3ccc(O)cc3)c3ccc4[nH]ccc4c3)c3ccccc32)c(C(=O)N2Cc3ccccc3C[C@H]2CN2CCN(C)CC2)cc1O [Example 202, 1-{4-Hydroxy-5-methoxy-2-[(3S)-3-[(4-methylpiperazin-1-yl)methyl]-1,2,3,4-tetrahydroisoquinoline-2-carbonyl]phenyl}-N-(4-hydroxyphenyl)-N-(1H-indol-5-yl)-1H-indole-3-carboxamide] | 4.4 | – | 798
21 | CN1CCN(C[C@@H]2Cc3ccccc3CN2C(=O)c2cc3c(cc2-n2cc(C(=O)N(c4ccccc4)c4ccc(O)cc4)c4ccccc42)OCCO3)CC1 [Example 170, N-(4-Hydroxyphenyl)-1-{7-[(3S)-3-[(4-methylpiperazin-1-yl)methyl]-1,2,3,4-tetrahydroisoquinoline-2-carbonyl]-2,3-dihydro-1,4-benzodioxin-6-yl}-N-phenyl-1H-indole-3-carboxamide] | 16.8 | – | 177
